# pIC50: −log10 of the molar value.
# Biological target: human JAK2 (Homo sapiens (Human), UniProt O60674)
# Experiment: JAK2 kinase Alphascreen assay
# Type: biochemical
# Conditions: 150 pM JAK2 enzyme, 15 μM ATP, 60 minutes, room temperature; read-out: JAK inhibitory activity IC50
# Description: JAK2 kinase activity was determined by measuring the kinase's ability to phosphorylate synthetic tyrosine residues within a generic polypeptide substrate using an Amplified Luminescent Proximity Assay (Alphascreen) technology (PerkinElmer, 549 Albany Street, Boston, Mass.).
# To measure JAK2 kinase activity, a commercially available purified enzyme may be used. The enzyme may be a C-terminal His6-tagged, recombinant, human JAK2, amino acids 808-end, (Genbank Accession number NM 004972) expressed by baculovirus in Sf21 cells (Upstate Biotechnology MA). After incubation of the kinase with a biotinylated substrate and adenosine triphosphate (ATP) for 60 minutes at room temperature, the kinase reaction may be stopped by the addition of 30 mM ethylenediaminetetraacetic acid (EDTA). The reaction may be performed in 384 well microtitre plates and the reaction products may be detected with the addition of streptavidin coated Donor Beads and phosphotyrosine-specific antibodies coated Acceptor Beads using the EnVision Multilabel Plate Reader after an overnight incubation at room temperature.
# human JAK2, sequence (O60674 808-1132 limits assumed): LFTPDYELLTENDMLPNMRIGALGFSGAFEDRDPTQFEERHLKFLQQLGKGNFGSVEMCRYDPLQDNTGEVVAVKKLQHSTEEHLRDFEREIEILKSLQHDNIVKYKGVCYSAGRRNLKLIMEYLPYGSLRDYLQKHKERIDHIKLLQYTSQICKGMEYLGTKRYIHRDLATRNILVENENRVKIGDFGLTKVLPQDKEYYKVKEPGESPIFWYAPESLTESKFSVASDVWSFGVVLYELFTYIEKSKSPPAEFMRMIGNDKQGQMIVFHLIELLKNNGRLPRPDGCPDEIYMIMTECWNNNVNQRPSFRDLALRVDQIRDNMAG
row,SMILES,pIC50
1,"Cc1cc(-n2cnc3ccc(N[C@@H](C)c4ccc(F)cn4)nc32)n[nH]1 [Example 17, N-[(1S)-1-(5-Fluoropyridin-2-yl)ethyl]-3-(5-methyl-1H-pyrazol-3-yl)-3H-imidazo[4,5-b]pyridin-5-amine]",8.52

# Biological target: human Trk A kinase (Homo sapiens (Human), UniProt P04629)
# Sequence (P04629 442-796): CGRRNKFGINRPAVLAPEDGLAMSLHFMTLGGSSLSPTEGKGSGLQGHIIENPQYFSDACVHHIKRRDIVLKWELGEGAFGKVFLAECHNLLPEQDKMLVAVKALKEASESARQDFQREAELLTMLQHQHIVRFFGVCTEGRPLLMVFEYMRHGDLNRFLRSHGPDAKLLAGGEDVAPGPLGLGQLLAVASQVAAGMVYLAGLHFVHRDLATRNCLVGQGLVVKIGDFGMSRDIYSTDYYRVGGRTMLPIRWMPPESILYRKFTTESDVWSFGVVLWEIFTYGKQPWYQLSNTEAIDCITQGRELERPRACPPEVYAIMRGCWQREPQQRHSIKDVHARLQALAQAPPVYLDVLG
# Experiment: Trk A kinase Alphascreen assay
# Type: biochemical
# Conditions: 0.838 ng/ml Trk A, 70 μM ATP, 20 minutes, room temperature; read-out: Trk inhibitory activity IC50
# Description: Trk A kinase activity was determined by measuring the kinase's ability to phosphorylate synthetic tyrosine residues within a generic polypeptide substrate using an Amplified Luminescent Proximity Assay (Alphascreen) technology (PerkinElmer, 549 Albany Street, Boston, Mass.).
# To measure Trk A kinase activity, the intracellular domain of a HIS-tagged human Trk A kinase (amino acids 442-796 of Trk A, Swiss-Prot Primary Accession Number P04629) may be expressed in SF9 cells and purified using standard nickel column chromatography. After incubation of the kinase with a biotinylated substrate and adenosine triphosphate (ATP) for 20 minutes at room temperature, the kinase reaction may be stopped by the addition of 30 mM ethylenediaminetetraacetic acid (EDTA). The reaction may be performed in 384 well microtitre plates and the reaction products may be detected with the addition of strepavidin coated Donor Beads and phosphotyrosine-specific antibodies coated Acceptor Beads using the EnVision Multilabel Plate Reader after an overnight incubation at room temperature.
row,SMILES,pIC50
1,"CC(C)Oc1cc(-n2cnc3ccc(N[C@@H](CO)c4ccc(F)cn4)nc32)n[nH]1 [Example 7, (2R)-2-(5-Fluoropyridin-2-yl)-2-{[3-(5-isopropoxy-1H-pyrazol-3-yl)-3H-imidazo[4,5-b]pyridin-5-yl]amino}ethanol]",8.52
2,"CCOc1cc(-n2cnc3ccc(N[C@@H](CO)c4ccc(F)cn4)nc32)n[nH]1 [Example 8, (2R)-2-{[3-(5-Ethoxy-1H-pyrazol-3-yl)-3H-imidazo[4,5-b]pyridin-5-yl]amino}-2-(5-fluoropyridin-2-yl)ethanol]",8.52
3,"CC(C)Oc1cc(-n2cnc3ccc(N[C@@H](C)c4ncc(F)cn4)nc32)n[nH]1 [Example 6, N-[(1S)-1-(5-Fluoropyrimidin-2-yl)ethyl]-3-(5-isopropoxy-1H-pyrazol-3-yl)-3H-imidazo[4,5-b]pyridin-5-amine]",8.52
4,"CCOc1cc(-n2cnc3ccc(N[C@@H](C)c4ccc(F)cn4)nc32)n[nH]1 [Example 10, 3-(5-Ethoxy-1H-pyrazol-3-yl)-N-[(1S)-1-(5-fluoropyridin-2-yl)ethyl]-3H-imidazo[4,5-b]pyridin-5-amine]",8.52
5,"CCOc1cc(-n2cnc3ccc(N[C@@H](C)c4ncc(F)cn4)nc32)n[nH]1 [Example 9, 3-(5-Ethoxy-1H-pyrazol-3-yl)-N-[(1S)-1-(5-fluoropyrimidin-2-yl)ethyl]-3H-imidazo[4,5-b]pyridin-5-amine]",8.52
6,"C[C@H](Nc1ccc2ncn(-c3cc(C4CC4)[nH]n3)c2n1)c1ccc(F)cn1 [Example 2, 3-(5-Cyclopropyl-1H-pyrazol-3-yl)-N-[(1S)-1-(5-fluoropyridin-2-yl)ethyl]-3H-imidazo[4,5-b]pyridin-5-amine]",8.52
7,"CC(C)Oc1cc(-n2cnc3ccc(N[C@@H](C)c4ccc(F)cn4)nc32)n[nH]1 [Example 1, N-[(1S)-1-(5-fluoropyridin-2-yl)ethyl]-3-(5-isopropoxy-1H-pyrazol-3-yl)-3H-imidazo[4,5-b]pyridin-5-amine]",8.52
8,"C[C@H](Nc1ncc2ncn(-c3cc(C4CC4)[nH]n3)c2n1)c1ncc(F)cn1 [Example 4, 9-(5-Cyclopropyl-1H-pyrazol-3-yl)-N-[(1S)-1-(5-fluoropyrimidin-2-yl)ethyl]-9H-purin-2-amine]",7.92
9,"C[C@H](Nc1ncc2ncn(-c3cc(C4CC4)[nH]n3)c2n1)c1ccc(F)cn1 [Example 5, 9-(5-Cyclopropyl-1H-pyrazol-3-yl)-N-[(1S)-1-(5-fluoropyridin-2-yl)ethyl]-9H-purin-2-amine]",8.30

# The remaining lines, values ahead:
row,pIC50,SMILES
1,6.11,"Cc1cc(-n2cnc3c(N4CCOCC4)nc(N[C@@H](C)c4ccc(F)cn4)nc32)n[nH]1 [Example 22, N-[(1S)-1-(5-Fluoropyridin-2-yl)ethyl]-9-(5-methyl-1H-pyrazol-3-yl)-6-morpholin-4-yl-9H-purin-2-amine]"
2,5.14,"Cc1cc(-n2cnc3c(C(=O)N4CCOCC4)nc(N[C@@H](C)c4ncc(F)cn4)nc32)n[nH]1 [Example 19, N-[(1S)-1-(5-Fluoropyrimidin-2-yl)ethyl]-9-(5-methyl-1H-pyrazol-3-yl)-6-(morpholin-4-ylcarbonyl)-9H-purin-2-amine]"
3,7.85,"Cc1cc(-n2cnc3ccc(N[C@@H](C)c4ccc(F)cn4)nc32)n[nH]1 [Example 17, N-[(1S)-1-(5-Fluoropyridin-2-yl)ethyl]-3-(5-methyl-1H-pyrazol-3-yl)-3H-imidazo[4,5-b]pyridin-5-amine]"
4,6.32,"Cc1cc(-n2cnc3c(NC4CCOCC4)nc(N[C@@H](C)c4ccc(F)cn4)nc32)n[nH]1 [Example 20, N^2-[(1S)-1-(5-Fluoropyridin-2-yl)ethyl]-9-(5-methyl-1H-pyrazol-3-yl)-N^6-(tetrahydro-2H-pyran-4-yl)-9H-purine-2,6-diamine]"
5,8.40,"CC(C)Oc1cc(-n2cnc3cc(Cl)c(N[C@@H](C)c4ccc(F)cn4)nc32)n[nH]1 [Example 14, 6-Chloro-N-[(1S)-1-(5-fluoropyridin-2-yl)ethyl]-3-(5-isopropoxy-1H-pyrazol-3-yl)-3H-imidazo[4,5-b]pyridin-5-amine]"
6,6.51,"Cc1cc(-n2cnc3cnc(N[C@@H](C)c4ccc(F)cn4)nc32)n[nH]1 [Example 18, N-[(1S)-1-(5-Fluoropyridin-2-yl)ethyl]-9-(5-methyl-1H-pyrazol-3-yl)-9H-purin-2-amine]"
7,8.52,"CC(C)Oc1cc(-n2cnc3cnc(N[C@@H](C)c4ccc(F)cn4)nc32)n[nH]1 [Example 11, N-[(1S)-1-(5-Fluoropyridin-2-yl)ethyl]-9-(5-isopropoxy-1H-pyrazol-3-yl)-9H-purin-2-amine]"
8,8.52,"CC(C)Oc1cc(-n2cnc3cnc(N[C@@H](C)c4ncc(F)cn4)nc32)n[nH]1 [Example 12, N-[(1S)-1-(5-Fluoropyrimidin-2-yl)ethyl]-9-(5-isopropoxy-1H-pyrazol-3-yl)-9H-purin-2-amine]"
9,8.52,"CCOc1cc(-n2cnc3ccc(N[C@@H](CC)c4ccc(F)cn4)nc32)n[nH]1 [Example 23, 3-(5-Ethoxy-1H-pyrazol-3-yl)-N-[(1S)-1-(5-fluoropyridin-2-yl)propyl]-3H-imidazo[4,5-b]pyridin-5-amine]"
10,8.22,"CC[C@H](Nc1ccc2ncn(-c3cc(OC(C)C)[nH]n3)c2n1)c1ccc(F)cn1 [Example 13, N-[(1S)-1-(5-Fluoropyridin-2-yl)propyl]-3-(5-isopropoxy-1H-pyrazol-3-yl)-3H-imidazo[4,5-b]pyridin-5-amine]"
11,7.02,"COc1nc(N[C@@H](C)c2ccc(F)cn2)nc2c1ncn2-c1cc(C)[nH]n1 [Example 21, N-[(1S)-1-(5-Fluoropyridin-2-yl)ethyl]-6-methoxy-9-(5-methyl-1H-pyrazol-3-yl)-9H-purin-2-amine]"
12,5.42,"Cc1cc(-n2cnc3cc(F)c(N[C@@H](C)c4ncc(F)cn4)nc32)n[nH]1 [Example 15, 6-Fluoro-N-[(1S)-1-(5-fluoropyrimidin-2-yl)ethyl]-3-(5-methyl-1H-pyrazol-3-yl)-3H-imidazo[4,5-b]pyridin-5-amine]"
13,7.21,"Cc1cc(-n2cnc3ccc(N[C@@H](C)c4ncc(F)cn4)nc32)n[nH]1 [Example 16, N-[(1S)-1-(5-Fluoropyrimidin-2-yl)ethyl]-3-(5-methyl-1H-pyrazol-3-yl)-3H-imidazo[4,5-b]pyridin-5-amine]"
